Assays:
[1] = tested on: TNFα-induced IL-6 production; assay: Rat in vivo TNFα-induced IL-6 production assay, oral gavage; set-up: species or system Female Wistar-Han rats; conditions: 3 mg/Kg, 30 min prior to TNF-α i.p. challenge, plasma 90 min after challenge
Procedure: Female Wistar-Han rats procured from Charles River Laboratories were allowed to acclimate for one week prior to use and achieve an approximate body weight of 101-130 g. Rats were administered test compound (N=8 per compound) via oral gavage 30 min prior to an intraperitoneal challenge of 0.5 μg recombinant rat TNF-α (Biosource). Blood was collected via cardiocentesis 90 min after TNF-α challenge. Plasma was prepared using lithium heparin separation tubes (BD microtainer) and frozen at −80° C. until analyzed. IL-6 levels were determined using a rat specific IL-6 ELISA kit (Biosource). The percent inhibition and ED50 values (calculated as the dose of compound at which […] is 50% of the control value) were determined.

[2] = tested on: TNFα-induced IL-6 production; assay: Rat in vivo TNFα-induced IL-6 production assay, subcutaneous; set-up: species or system Female Wistar-Han rats; conditions: plasma 90 min after TNF-α challenge
Procedure: Female Wistar-Han rats procured from Charles River Laboratories were allowed to acclimate for one week prior to use and achieve an approximate body weight of 114-132 g. Rats were administered compound 18 (N=8 per dose) subcutaneously 30 min prior to an intra-peritoneal challenge of 0.5 μg recombinant rat TNF-α (Biosource). Blood was collected via cardiocentesis 90 min after TNF-α challenge. Plasma was prepared using lithium heparin separation tubes (BD microtainer) and frozen at −80° C. until analyzed. IL-6 levels were determined using a rat specific IL-6 ELISA kit (Biosource). The percent inhibition and ED50 values (calculated as the dose of compound at which […] is 50% of the control value) were determined.

COC(=O)c1c(Cc2ccc(C(=O)NCCO)cc2)c(=O)c2ccc(Cl)cc2n1-c1ccccc1 [Compound 18, 7-chloro-3-[4-(2-hydroxyethylcarbamoyl)-benzyl]-4-oxo-1-phenyl-1,4-dihydroquinoline-2-carboxylic acid methyl ester]
IL-6 Inhibition (%) [1]: 53% | IL-6 Inhibition (%) ([2]; 0.3 mg/Kg): 30.01% | IL-6 Inhibition (%) ([2]; 1.0 mg/Kg): 47.83% | IL-6 Inhibition (%) ([2]; 3.0 mg/Kg): 54.85% | IL-6 Inhibition (%) ([2]; 10 mg/Kg): 71.15%
